BindingDB's records for patent US11718622 (Exelixis, 2023)

Experiments:
Adenosine receptor A2a = Adenosine receptor A2a (Homo sapiens, UniProt P29274); test: ADORA1A Receptor Binding Assay
Procedure: 2 L of each compound (test compounds, high control compound, low control compound) was transferred into individual wells of an assay plate. Also, to each individual well, 98 µL of Adenosine A1a membrane stock (for ADORA1A Receptor Binding Assay) or Adenosine A2a membrane stock (for ADORA2A Receptor Binding Assay) was dispensed, followed by 100 L of radio-labeled ligand. Plates were then sealed and incubated at room temperature for 1 hour (for ADORA1A Receptor Binding Assay) or 2 hours (for ADORA2A Receptor Binding Assay). Unifilter-96 GF/C filter plates were pre-soaked with 50 µL of 0.3% PEI per well for at least 30 min at room temperature. When binding assays were completed, reaction mixtures were filtered through GF/C plates using a Perkin Elmer Filtermate Harvester, and then each plate was washed 4 with cold wash buffer. Filter plates were then dried for 1 hour at 50 ° C. After drying, the bottom of the filter plate wells was sealed using Perkin Elmer Unifilter-96 backing seal tape. […] 3H trapped on the filter was counted using a Perkin Elmer MicroBeta2 Reader. Data analysis was performed using GraphPad Prism 5 software, and the Inhibition [% Control] was calculated using the following equation: % Inh=(1 Background subtracted Assay value/Background subtracted HC value) *100.

Adenosine receptor A2b = target: T1, Adenosine receptor A2b (Homo sapiens, UniProt P29275); test: ADORA2B Receptor Binding Assay
T1 sequence (P29275 whole entry): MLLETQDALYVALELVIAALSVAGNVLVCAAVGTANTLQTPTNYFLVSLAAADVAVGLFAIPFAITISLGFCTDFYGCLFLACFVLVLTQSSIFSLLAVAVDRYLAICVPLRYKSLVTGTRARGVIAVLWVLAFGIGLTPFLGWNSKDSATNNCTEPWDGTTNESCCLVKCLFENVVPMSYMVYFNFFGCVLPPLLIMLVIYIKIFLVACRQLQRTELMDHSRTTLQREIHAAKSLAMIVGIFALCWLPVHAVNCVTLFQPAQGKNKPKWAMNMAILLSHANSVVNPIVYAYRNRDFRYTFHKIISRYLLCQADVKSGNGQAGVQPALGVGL
Procedure: 100 μL of Adenosine A2B membrane stock was dispensed into individual wells of an assay plate. 1 μL of each compound (test compounds, high control compound, low control compound) was then transferred into individual wells, followed by 100 μL of radio-labeled ligand. Plates were then sealed, and incubated at room temperature for 1 hour. Unifilter-96 GF/C filter plates were pre-soaked with 50 μL of 0.5% BSA per well for at least 30 min at room temperature. When binding assays were completed, reaction mixtures were filtered through GF/C plates using a Perkin Elmer Filtermate Harvester, and then each plate was washed 4× with cold wash buffer. Filter plates were then dried for 1 hour at 50° C. After drying, the bottom of the filter plate wells was sealed using Perkin Elmer Unifilter-96 backing seal tape. 50 μL of Perkin Elmer Microscint 20 cocktail was then added, and the top of the filter plate was then sealed using Perkin Elmer TopSeal-A sealing film. 3H trapped on the filter was counted using a Perkin Elmer MicroBeta2 Reader. Data analysis was performed using GraphPad Prism 5 software, and the Inhibition [% Control] was calculated using the following equation: % Inh=(1−Background subtracted Assay value/Background subtracted HC value) *100.

Chain of Adenosine receptor A2a (P29274 whole entry): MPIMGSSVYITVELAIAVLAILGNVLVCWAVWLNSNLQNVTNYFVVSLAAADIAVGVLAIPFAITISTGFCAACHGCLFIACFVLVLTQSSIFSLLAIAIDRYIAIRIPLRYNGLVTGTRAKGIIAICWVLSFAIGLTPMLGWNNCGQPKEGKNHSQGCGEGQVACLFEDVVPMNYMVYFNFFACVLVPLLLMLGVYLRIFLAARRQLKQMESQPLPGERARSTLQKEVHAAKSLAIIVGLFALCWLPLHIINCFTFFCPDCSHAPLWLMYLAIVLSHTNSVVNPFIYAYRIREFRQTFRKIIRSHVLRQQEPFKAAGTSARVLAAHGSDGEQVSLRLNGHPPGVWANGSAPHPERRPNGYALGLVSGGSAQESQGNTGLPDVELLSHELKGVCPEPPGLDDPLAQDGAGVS

IC50 (Adenosine receptor A2a) [µM]	IC50 (Adenosine receptor A2b) [µM]	Structure (SMILES)
< 0.01	< 0.01	Cc1ccc(-c2nc(N)c(C#N)c3nc(C(F)(F)F)nn23)o1 [US11718622, Compound 46]
< 0.01	< 0.01	Nc1nc2c(-c3ccco3)nc(NC(=O)C3CC3)cn2n1 [US11718622, Compound 186]
